Measured values from ChEMBL document CHEMBL2412997, “Determination of the binding mode and interacting amino-acids for dibasic H3 receptor antagonists” (Bioorg Med Chem, 2013).

Legend:
Histamine H3 receptor [1] = target: T1, Histamine H3 receptor (Homo sapiens, UniProt Q9Y5N1); assay: Displacement of [125I]iodoproxyfan from histamine H3 receptor (unknown origin) expressed in CHO cells; format: cell-based
Histamine H3 receptor [2] = target: T1, Histamine H3 receptor; assay: Binding affinity to histamine H3 receptor (unknown origin)

T1 sequence (Q9Y5N1 whole entry): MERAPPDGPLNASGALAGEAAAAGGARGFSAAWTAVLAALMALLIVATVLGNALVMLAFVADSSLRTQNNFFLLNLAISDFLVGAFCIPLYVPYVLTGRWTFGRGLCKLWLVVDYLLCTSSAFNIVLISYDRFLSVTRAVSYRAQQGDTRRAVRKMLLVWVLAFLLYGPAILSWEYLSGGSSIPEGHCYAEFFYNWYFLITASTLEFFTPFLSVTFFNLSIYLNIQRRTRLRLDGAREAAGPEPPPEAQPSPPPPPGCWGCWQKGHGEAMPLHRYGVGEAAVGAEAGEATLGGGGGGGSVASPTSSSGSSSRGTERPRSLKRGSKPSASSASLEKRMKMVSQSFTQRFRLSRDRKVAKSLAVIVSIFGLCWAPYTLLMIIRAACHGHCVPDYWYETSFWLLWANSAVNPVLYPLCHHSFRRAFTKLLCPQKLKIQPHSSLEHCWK

Q: With `CN1CCN(c2ccc(-c3ccc(OCCCN4CCCCC4)cc3)cc2)CC1` as the compound, how does the Ki (Histamine H3 receptor [1]) read?
A: 0.23 nM

Q: For `C(=C/c1ccc(-c2ccc(OCCCN3CCCCC3)cc2)cc1)/CN1CCCCC1`, which Ki (Histamine H3 receptor [1]) is on record?
A: 0.057 nM

Q: Which Ki (Histamine H3 receptor [2]) does the source give for `c1cc(-c2ccc(CCN3CCCCC3)cc2)ccc1CCN1CCCCC1` here?
A: 1.2 nM

Q: How did the Ki (Histamine H3 receptor [1]) turn out when `FC1(F)CCN(CCCOc2ccc(-c3ccc(OCCCN4CCCCC4)cc3)cc2)CC1` was run?
A: 9.31 nM

Q: Which Ki (Histamine H3 receptor [2]) does the source give for `CCN1CCCc2cccc(OCCCN3CCCCC3)c21` here?
A: 1000 nM

Q: For `c1cc(OCCCN2CCCCC2)ccc1Cc1ccc(OCCCN2CCCCC2)cc1`, which Ki (Histamine H3 receptor [1]) is on record?
A: 0.51 nM

Q: `O=C(/C=C/c1ccc(OCCCN2CCCCC2)cc1)c1ccc(OCCCN2CCCCC2)cc1` was tested. Which Ki (Histamine H3 receptor [1]) did it give?
A: 0.53 nM

Q: Which Ki (Histamine H3 receptor [1]) does the source give for `C(#Cc1ccc(-c2ccc(OCCCN3CCCCC3)cc2)cc1)CN1CCCCC1` here?
A: 0.67 nM

Q: `O=C(CCc1ccc(OCCCN2CCCCC2)cc1)c1ccc(OCCCN2CCCCC2)cc1` was tested. Which Ki (Histamine H3 receptor [1]) did it give?
A: 0.64 nM

Q: With `CCN1CCCc2c(OCCCN3CCCCC3)cccc21` as the compound, how does the Ki (Histamine H3 receptor [2]) read?
A: 1000 nM

Q: `c1cc(CN2CCCCC2)cc(-c2ccc(OCCCN3CCCCC3)cc2)c1` was tested. Which Ki (Histamine H3 receptor [1]) did it give?
A: 0.549 nM

Q: How did the Ki (Histamine H3 receptor [1]) turn out when `c1ccc(-c2ccc(OCCCN3CCCCC3)cc2)c(CN2CCCCC2)c1` was run?
A: 0.045 nM

Q: How did the Ki (Histamine H3 receptor [1]) turn out when `c1cc(-c2ccc(OCCCN3CCCCC3)cc2)ccc1CCCN1CCCCC1` was run?
A: 0.17 nM

Q: How did the Ki (Histamine H3 receptor [1]) turn out when `c1cc(-c2ccc(OCCN3CCCCC3)cc2)ccc1OCCCN1CCCCC1` was run?
A: 0.49 nM

Q: `N#CC(C#N)=C1N(CCCCN2CCCCC2)CCN1CCCN1CCCCC1` was tested. Which Ki (Histamine H3 receptor [2]) did it give?
A: 61 nM

Q: `c1cc(OCCCN2CCCCC2)ccc1CCc1ccc(OCCCN2CCCCC2)cc1` was tested. Which Ki (Histamine H3 receptor [1]) did it give?
A: 1.21 nM

Q: With `c1cc(-c2ccc(OCCCN3CCCCC3)cc2)ccc1CN1CCCCC1` as the compound, how does the Ki (Histamine H3 receptor [1]) read?
A: 1.64 nM

Q: For `c1cc(OCCCN2CCCCC2)ccc1CCCc1ccc(OCCCN2CCCCC2)cc1`, which Ki (Histamine H3 receptor [1]) is on record?
A: 0.9 nM

Q: With `C(=C\c1ccc(-c2ccc(OCCCN3CCCCC3)cc2)cc1)/CN1CCCCC1` as the compound, how does the Ki (Histamine H3 receptor [1]) read?
A: 0.655 nM

Q: For `c1cc(-c2ccc(CN3CCCCC3)cc2)ccc1CN1CCCCC1`, which Ki (Histamine H3 receptor [2]) is on record?
A: 0.3 nM

Q: How did the Ki (Histamine H3 receptor [1]) turn out when `c1cc(-c2ccc(OCCCN3CCCCC3)cc2)ccc1OCCCCN1CCCCC1` was run?
A: 0.13 nM

Q: How did the Ki (Histamine H3 receptor [2]) turn out when `N#CC(C#N)=C1N(CCCCN2CCCCC2)CCN1CCCCN1CCCCC1` was run?
A: 56 nM
